According to US20240067685A1, “HIDDEN ANTIBIOTICS IN THE HUMAN PROTEOME” (priority 2022, published 2024):
No end group written: not given here.

What was measured:
A. baumannii ATCC 17878 = assay: microbe, parasite or virus in culture; conditions: ATCC 17878
Description: (§1) Antimicrobial activity. The antimicrobial activity of ApoB-derived encrypted peptides was assessed against a panel of skin pathogens, such as S. epidermidis ATCC 35984, S. aureus ATCC 12600, A. baumannii ATCC 17878, K. pneumoniae ATCC 700603, S. aureus MRSA (WK7-2), E. faecalis ATCC 29212 and P. aeruginosa PAO1 by using the broth microdilution method. ^20 Bacteria were grown to mid-logarithmic phase in MHB at 37° C. […] Following incubation over-night, each sample was diluted, plated on TSA, and incubated at 37° C. for 24 h to count the number of colonies. All experiments were performed in three independent replicates.

[1] = test system: K. pneumoniae ATCC 700603; assay: microbe, parasite or virus in culture; conditions: ATCC 700603
Description: as §1

S. aureus ATCC 12600 = assay: microbe, parasite or virus in culture; conditions: ATCC 12600
Description: as §1

[2] = test system: S. epidermidis ATCC 35984; assay: microbe, parasite or virus in culture; conditions: ATCC 35984
Description: as §1

E. faecalis ATCC 29212 = test system: E. faecalis ATCC 29212
Description: as §1

[3] = test system: P. aeruginosa wild-type PAO1
Description: as §1

S. aureus MRSA (WKZ-2) = test system: S. aureus MRSA (WKZ-2)
Description: as §1

in vitro [4] = assay type: cell-based; conditions: human
Description: Cytokine-mediated immunogenicity is one potential side effect of peptide therapeutics as it can lead to cytotoxic effects and allergic responses. ^21,45 To determine whether the peptides exerted any toxic effects against eukaryotic cells and to verify their biocompatibility towards skin cell cultures, dose-response and time-course 3-(4, 5-dimethylthiazolyl-2)-2,5-diphenyltetrazolium bromide (MTT) and lactate dehydrogenase (LDH) cytotoxicity assays were performed against both human dermal fibroblasts (HDF) and human epidermoid carcinoma cell (A431) lines. Due to their cationic nature, most AMPs preferentially interact with negatively charged membranes, such as those of bacteria. […] To evaluate whether peptides exert cytostatic or cytotoxic effects through membrane damage, LDH release in culture medium was detected as a biomarker of membrane damage. ^50 Thus, human dermal fibroblasts (HDF) and human epidermoid carcinoma cells (A431) were treated with each peptide at a concentration of 10 and 20 μmol L^−1 for 72 h. No significant LDH release was detected, thus indicating no damage to eukaryotic cell membranes caused by exposure to the peptides (FIG. 7C).
Eukaryotic cell culture and cytotoxicity assays. […] Cell viability was expressed as means of the percentage values compared to control untreated cells. […]

[5] = test system: Acinetobacter baumannii ATCC 17878; assay type: cell-based; conditions: ATCC 17878, 16 h
Description: (§2) Antimicrobial activity of peptides upon pre-incubation in 10% serum. The antimicrobial activity of r(P)ApoBS^Pro and (ri)-r(P)ApoBS^Pro was evaluated against four bacterial strains upon pre-incubation in 10% FBS (fetal bovine serum, Microgem Lab, Cat. 51860, Italy). All the peptides were incubated for 1 h or 16 h in serum at 37° C. (water bath) prior to MIC value determination by standard protocols. ^20 Experiments were carried out in triplicate for each peptide.

[6] = test system: Klebsiella pneumoniae ATCC 700603; assay type: cell-based; conditions: ATCC 700603, 16 h
Description: as §2

[7] = test system: Staphylococcus aureus ATCC 12600; assay type: cell-based; conditions: ATCC 12600, 16 h
Description: as §2

in vitro [8] = conditions: 25% fetal bovine serum
Description: To determine its proteolytic stability, it was assessed whether (ri)-r(P)ApoBS^Pro was less susceptible to serum proteases compared to its parent peptide r(P)ApoBS^Pro.
Stability assay. The resistance to enzymatic degradation assay was performed according to the method described by Powell et al. ^72 Briefly, peptides at 2 mg mL^−1 were exposed to a solution of 25% fetal bovine serum in water. Aliquots were collected after 0.5, 1, 2, and 4 h and 10 μL of trifluoroacetic acid was added to them while the samples were on ice for 10 min. The enzymatic degradation of peptides was followed by reverse-phase high performance liquid chromatography coupled to mass spectrometry (RP-HPLC/ESI-MS). The percentage of remaining peptide was calculated by integrating the area under the curve related to the peptide at time point zero.
where AUCX is the area under the curve of the peak related to the peptide after t h (t=0.5, 1, 2, and 4 h), and AUC0 is the area under the curve of the peak related to the peptide at the beginning of the experiment. Three independent experimental replicates were performed, as previously described. ^73

**Q.** With “PHVALKPGKLKFIIPSPKRPVKLLSG [r(P)ApoBS^Pro]” as the sequence, how does the MIC (A. baumannii ATCC 17878) read?
**A.** 5 µM

**Q.** And the MIC [1]?
**A.** 5 µM

**Q.** And the MIC (S. aureus ATCC 12600)?
**A.** 20 µM

**Q.** What about the MIC [2] of the same sequence?
**A.** 10 µM

**Q.** And the MIC (E. faecalis ATCC 29212)?
**A.** 20 µM

**Q.** And the MIC [3]?
**A.** 10 µM

**Q.** And the MIC (S. aureus MRSA (WKZ-2))?
**A.** 10 µM

**Q.** What about the cytotoxicity at 24 h (in vitro [4]) of the same sequence?
**A.** 30%

**Q.** What about the “MIC upon incubation in serum” value [5] of the same sequence?
**A.** > 80 µM

**Q.** And the “MIC upon incubation in serum” value [6]?
**A.** > 80 µM

**Q.** And the “MIC upon incubation in serum” value [7]?
**A.** > 80 µM

**Q.** What about the “stability in the presence of serum” value (in vitro [8]) of the same sequence?
**A.** degraded within minutes

**Q.** What about the “exposure time after which peptide degraded” value (in vitro [8]; RP-HPLC/ESI-MS) of the same sequence?
**A.** 30 min
